Assay results published in patent US8106055B2, “Substituted amide compounds” (Gruenenthal GmbH, priority 2007, dated 2012).

Target: T1, human μ opiate receptor (Homo sapiens, UniProt P35372)
T1 construct: purchased PerkinElmer Life Sciences, Zaventem, Belgium RB-HOM; host or cells: CHO-K1 cells (membrane preparation)
Assay: Affinity for the human μ opiate receptor ([3H]-naloxone displacement, CHO-K1 receptor membrane preparation, SPA)
Assay type: binding
Conditions: test concentration of 1 μM; read-out: μ (binding on the μ opioid receptor, % inhibition)
In short: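 Membranes from CHO-K1 cells expressing the human μ opiate receptor (15-40 μg protein per well) were incubated with test compound, 1 nmol/l [3H]-naloxone and WGA-SPA beads in 50 mmol/l Tris-HCl with 0.06% BSA for 90 minutes at room temperature. Values are % inhibition of specific binding at 1 μmol/l.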

T1 sequence (P35372 whole entry): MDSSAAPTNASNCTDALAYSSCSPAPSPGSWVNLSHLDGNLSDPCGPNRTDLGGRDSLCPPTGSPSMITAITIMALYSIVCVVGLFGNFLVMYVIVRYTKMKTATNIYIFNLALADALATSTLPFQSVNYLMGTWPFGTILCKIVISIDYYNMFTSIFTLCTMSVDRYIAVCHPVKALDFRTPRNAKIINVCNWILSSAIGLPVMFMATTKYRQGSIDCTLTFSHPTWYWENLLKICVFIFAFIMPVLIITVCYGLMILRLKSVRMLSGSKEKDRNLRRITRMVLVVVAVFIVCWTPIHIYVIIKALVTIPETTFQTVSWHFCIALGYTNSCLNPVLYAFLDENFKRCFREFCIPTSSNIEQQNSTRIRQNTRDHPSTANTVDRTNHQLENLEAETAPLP

Point of comparison: `COc1ccc(S(=O)(=O)N(C)CCOCC(=O)NCC2CCC(C(c3ccccc3)N(C)C)CC2)cc1OC` (stereo not shown) [Example 169, 2-(2-(3,4-dimethoxy-N-methylphenylsulfonamido)ethoxy)-N-((4-((dimethylamino)(phenyl)methyl)cyclohexyl)methyl)acetamide], inhibition at 1 µM 85%. Against it:
- CN(C)C(c1cccc(F)c1)C1CCC(NC(=O)COC2CCN(S(=O)(=O)c3ccc(F)cc3)C2)CC1 (stereo not shown) [Example 172, N-(4-((dimethylamino)(3-fluorophenyl)methyl)cyclohexyl)-2-(1-(4-fluorophenylsulfonyl)pyrrolidin-3-yloxy)acetamide] — lower, 78%
- COc1cc(C)c(S(=O)(=O)N2CCC(OCC(=O)NC3CCC(C(c4cccc(F)c4)N(C)C)CC3)C2)c(C)c1C (stereo not shown) [Example 189, N-(4-((dimethylamino)(3-fluorophenyl)methyl)cyclohexyl)-2-(1-(4-methoxy-2,3,6-trimethylphenylsulfonyl)pyrrolidin-3-yloxy)acetamide] — lower, 84%
- CN(C)C(c1cccs1)C1CCC(CNC(=O)COC2CCCCC2N(C)S(=O)(=O)c2ccc(Cl)c(Cl)c2)CC1 (stereo not shown) [Example 31, 2-(2-(3,4-dichloro-N-methylphenylsulfonamido)cyclohexyloxy)-N-((4-((dimethylamino)(thiophen-2-yl)methyl)cyclohexyl)methyl)acetamide] — higher, 97%
- CN(C)C(c1cccc(F)c1)C1CCC(CNC(=O)COCCN(C)S(=O)(=O)c2ccc(Cl)cc2)CC1 (stereo not shown) [Example 158, 2-(2-(4-chloro-N-methylphenylsulfonamido)ethoxy)-N-((4-((dimethylamino)(3-fluorophenyl)methyl)cyclohexyl)methyl)acetamide] — higher, 87%
- COc1cc(C)c(S(=O)(=O)N2CCC(CCOCC(=O)NCC3CCC(C(c4ccccc4)N(C)C)CC3)CC2)c(C)c1C (stereo not shown) [Example 146, N-((4-((dimethylamino)(phenyl)methyl)cyclohexyl)methyl)-2-(2-(1-(4-methoxy-2,3,6-trimethylphenylsulfonyl)piperidin-4-yl)ethoxy)acetamide] — higher, 88%
- CN(C)C(c1ccccc1)C1CCC(NC(=O)COCCN(C)S(=O)(=O)c2c(F)c(F)c(F)c(F)c2F)CC1 (stereo not shown) [Example 136, N-(4-((dimethylamino)(phenyl)methyl)cyclohexyl)-2-(2-(2,3,4,5,6-pentafluoro-N-methylphenylsulfonamido)ethoxy)acetamide] — higher, 89%
- COc1ccc(S(=O)(=O)N2CCCCC2COCC(=O)NCCC2CCC(C(c3cccc(F)c3)N(C)C)CC2)cc1 (stereo not shown) [Example 180, N-(2-(4-((dimethylamino)(3-fluorophenyl)methyl)cyclohexyl)ethyl)-2-((1-(4-methoxyphenylsulfonyl)piperidin-2-yl)methoxy)acetamide] — higher, 90%
- COc1cc(C)c(S(=O)(=O)N2CCC(CCOCC(=O)NC3CCC(C(c4ccc(F)cc4)N(C)C)CC3)CC2)c(C)c1C (stereo not shown) [Example 178, N-(4-((dimethylamino)(4-fluorophenyl)methyl)cyclohexyl)-2-(2-(1-(4-methoxy-2,3,6-trimethylphenylsulfonyl)piperidin-4-yl)ethoxy)acetamide] — lower, 81%
- COc1cc(C)c(S(=O)(=O)N2CCN(CCOCC(=O)NC3CCC(C(c4ccccc4)N(C)C)CC3)CC2)c(C)c1C (stereo not shown) [Example 20, N-(4-((dimethylamino)(phenyl)methyl)cyclohexyl)-2-(2-(4-(4-methoxy-2,3,6-trimethylphenylsulfonyl)piperazin-1-yl)ethoxy)acetamide] — higher, 97%
- Cc1cc(C)c(S(=O)(=O)N2CCC(OCC(=O)NC3CCC(C(c4cccc(F)c4)N(C)C)CC3)C2)c(C)c1 (stereo not shown) [Example 140, N-(4-((dimethylamino)(3-fluorophenyl)methyl)cyclohexyl)-2-(1-(mesitylsulfonyl)pyrrolidin-3-yloxy)acetamide] — lower, 83%
- COc1ccc(S(=O)(=O)N2CCC(OCC(=O)NCC3CCC(C(c4ccccc4)N(C)C)CC3)C2)cc1OC (stereo not shown) [Example 22, 2-(1-(3,4-dimethoxyphenylsulfonyl)pyrrolidin-3-yloxy)-N-((4-((dimethylamino)(phenyl)methyl)cyclohexyl)methyl)acetamide] — higher, 97%
- CCN(CCOCC(=O)NCC1CCC(C(c2cccs2)N(C)C)CC1)S(=O)(=O)c1c(C)cc(OC)c(C)c1C (stereo not shown) [Example 16, N-((4-((dimethylamino)(thiophen-2-yl)methyl)cyclohexyl)methyl)-2-(2-(N-ethyl-4-methoxy-2,3,6-trimethylphenylsulfonamido)ethoxy)acetamide] — higher, 98%
- COc1ccc(S(=O)(=O)N2CCCCC2COCC(=O)NCC2CCC(C(c3cccc(F)c3)N(C)C)CC2)c(OC)c1 (stereo not shown) [Example 151, 2-((1-(2,4-dimethoxyphenylsulfonyl)piperidin-2-yl)methoxy)-N-((4-((dimethylamino)(3-fluorophenyl)methyl)cyclohexyl)methyl)acetamide] — higher, 90%
- COc1cc(C)c(S(=O)(=O)N(CCOCC(=O)NC2CCC(C(c3ccccc3)N(C)C)CC2)Cc2ccccc2)c(C)c1C (stereo not shown) [Example 193, 2-(2-(N-benzyl-4-methoxy-2,3,6-trimethylphenylsulfonamido)ethoxy)-N-(4-((dimethylamino) (phenyl)methyl)cyclohexyl)acetamide] — the same, 85%
- CN(C)C(c1cccs1)C1CCC(CCNC(=O)COC2CCN(S(=O)(=O)c3ccc(F)cc3)C2)CC1 (stereo not shown) [Example 138, N-(2-(4-((dimethylamino)(thiophen-2-yl)methyl)cyclohexyl)ethyl)-2-(1-(4-fluorophenylsulfonyl)pyrrolidin-3-yloxy)acetamide] — higher, 87%
- COc1ccc(S(=O)(=O)N2CCCCC2COCC(=O)NCCC2CCC(C(c3cccc(F)c3)N(C)C)CC2)cc1OC (stereo not shown) [Example 191, 2-((1-(3,4-dimethoxyphenylsulfonyl)piperidin-2-yl)methoxy)-N-(2-(4-((dimethylamino)(3-fluorophenyl)methyl)cyclohexyl)ethyl)acetamide] — the same, 85%
- CN(C)C(c1cccs1)C1CCC(NC(=O)COCCN(C)S(=O)(=O)c2cccc(C(F)(F)F)c2)CC1 (stereo not shown) [Example 152, N-(4-((dimethylamino)(thiophen-2-yl)methyl)cyclohexyl)-2-(2-(N-methyl-3-(trifluoromethyl)phenylsulfonamido)ethoxy)acetamide] — higher, 89%
- COc1ccc(S(=O)(=O)N(C)CCOCC(=O)NCC2CCC(C(c3cccs3)N(C)C)CC2)cc1 (stereo not shown) [Example 142, N-((4-((dimethylamino)(thiophen-2-yl)methyl)cyclohexyl)methyl)-2-(2-(4-methoxy-N-methylphenylsulfonamido)ethoxy)acetamide] — higher, 89%
- CN(C)C(c1cccc(F)c1)C1CCC(NC(=O)COCCN(C)S(=O)(=O)c2ccc(Cl)cc2)CC1 (stereo not shown) [Example 196, 2-(2-(4-chloro-N-methylphenylsulfonamido)ethoxy)-N-(4-((dimethylamino)(3-fluorophenyl)methyl)cyclohexyl)acetamide] — lower, 81%
- COc1ccc(S(=O)(=O)N2Cc3ccccc3CC2COCC(=O)NCCC2CCC(C(c3cccc(F)c3)N(C)C)CC2)cc1 (stereo not shown) [Example 190, N-(2-(4-((dimethylamino) (3-fluorophenyl)methyl)cyclohexyl)ethyl)-2-((2-(4-methoxyphenylsulfonyl)-1,2,3,4-tetrahydroisoquinolin-3-yl)methoxy)acetamide] — lower, 83%
- COc1cc(C)c(S(=O)(=O)N2CCC(OCC(=O)NCCC3CCC(C(c4cccs4)N(C)C)CC3)CC2)c(C)c1C (stereo not shown) [Example 177, N-(2-(4-((dimethylamino)(thiophen-2-yl)methyl)cyclohexyl)ethyl)-2-(1-(4-methoxy-2,3,6-trimethylphenylsulfonyl)piperidin-4-yloxy)acetamide] — higher, 88%
- COc1cc(C)c(S(=O)(=O)N(C)CCOCC(=O)NCC2CCC(C(c3ccccc3)N(C)C)CC2)c(C)c1 (stereo not shown) [Example 137, N-((4-((dimethylamino)(phenyl)methyl)cyclohexyl)methyl)-2-(2-(4-methoxy-N,2,6-trimethylphenylsulfonamido)ethoxy)acetamide] — higher, 89%
- COc1ccc(S(=O)(=O)N2Cc3ccccc3CC2COCC(=O)NCC2CCC(C(c3ccccc3)N(C)C)CC2)cc1 (stereo not shown) [Example 19, N-((4-((dimethylamino)(phenyl)methyl)cyclohexyl)methyl)-2-((2-(4-methoxyphenylsulfonyl)-1,2,3,4-tetrahydroisoquinolin-3-yl)methoxy)acetamide] — higher, 98%
- COc1ccc(S(=O)(=O)N2Cc3ccccc3CC2COCC(=O)NCC2CCC(C(c3cccc(F)c3)N(C)C)CC2)cc1 (stereo not shown) [Example 163, N-((4-((dimethylamino)(3-fluorophenyl)methyl)cyclohexyl)methyl)-2-((2-(4-methoxyphenylsulfonyl)-1,2,3,4-tetrahydroisoquinolin-3-yl)methoxy)acetamide] — higher, 87%
- Cc1cc(C)c(S(=O)(=O)N2CCC(OCC(=O)NCC3CCC(C(c4cccc(F)c4)N(C)C)CC3)C2)c(C)c1 (stereo not shown) [Example 141, N-((4-((dimethylamino)(3-fluorophenyl)methyl)cyclohexyl)methyl)-2-(1-(mesitylsulfonyl)pyrrolidin-3-yloxy)acetamide] — higher, 88%
- CN(C)C(c1cccs1)C1CCC(NC(=O)COC2CCN(S(=O)(=O)c3ccc(F)cc3)C2)CC1 (stereo not shown) [Example 28, N-(4-((dimethylamino)(thiophen-2-yl)methyl)cyclohexyl)-2-(1-(4-fluorophenylsulfonyl)pyrrolidin-3-yloxy)acetamide] — higher, 97%
- CN(C)C(c1ccccc1)C1CCC(CNC(=O)COCCN(C)S(=O)(=O)c2c(Cl)cc(Cl)cc2Cl)CC1 (stereo not shown) [Example 14, N-((4-((dimethylamino)(phenyl)methyl)cyclohexyl)methyl)-2-(2-(2,4,6-trichloro-N-methylphenylsulfonamido)ethoxy)acetamide] — higher, 98%
